The values below are quoted from earlier work in patent publication US20220160758A1, “ANTIVIRAL, ANTIBACTERIAL AND/OR ANTI FUNGAL COMPOSITIONS, APPLICATIONS AND THERAPY” (AVITAS BIO CORP., priority 2020, published 2022).

Series [1] has as its system bacteriophage PR4. The settings on record: in vitro.
The test system of series [2] is bacteriophage.
For series [3], the system named is gram-positive and gram-negative microorganisms. The settings on record: at the concentrations tested.

On to `CCCCCCCC/C=C\CCCCCCCC(=O)O` [oleic acid], for which the “inhibition of viral replication” value in series [1] is reported as “most effective”. Further, in series [2], the inactivating the virus entry is reported as “most effective”.
On to `CCCCCC/C=C\CCCCCCCC(=O)O` [palmitoleic acid], for which the “inhibition of viral replication” value in series [1] was “most effective”.
On to `CCCCC/C=C\C/C=C\C/C=C\C/C=C\CCCC(=O)O` [arachidonic acid], for which the “inhibition of viral replication” value in series [1] was “moderately effective”. Also, the growth inhibition entry in series [3] is “not inhibitory”.
